Measurements as given in patent US12163111B2 (priority 2017, dated 2024).
Like-named read-outs stand apart in the source and are kept apart here.

Columns and labels:
[1] = Description: Various materials used to manufacture a cell culture device have been tested. One material used for the cell culture device, PEEK, is a strong plastic polymer that is resistant to wear. PEEK is advantageous in drug testing because it is non-absorbent as opposed to, for example, the commonly used poly(dimethylsiloxane) (PDMS), which is known to retain small hydrophobic molecules, such as nicotine. PEEK has been found not to retain nicotine or NNK, another small hydrophobic molecule. Therefore, the cell culture device is suitable for the testing of drug effects on the tissues housed within the cell culture device without risk of the drug concentration (or concentration of its metabolites) being altered by the material.
PEEK has the advantage of not being absorbent towards small molecules. […] This is important since materials used for commercially available plates such as PDMS are known to trap small hydrophobic molecules.

[2] = PDMS plate, 8 hours incubation at 4° C.

Compound	amount of nicotine remaining in the plate ([1]; 8 h)	absorbance of PEEK towards the molecule (trapping by the material) [1]	amount of nicotine remaining in the plate [2]
CN1CCCC1c1cccnc1 (stereo not shown) [nicotine]	about 100%	not trapped by the material	about 35%
CN(CCCC(=O)c1cccnc1)N=O [NNK, 4-(methylnitrosamino)-1-(3-pyridyl)-1-butanone]		not trapped by the material	
